Entries after “also recorded” stand apart in the source; their conditions may differ.
Assays:
THP-1 cells = assay: resazurin viability assay in THP-1 cells; type: cell-based, human; conditions: * mild, ** marked reduction in viability, in % (unit assumed)
Description: The ability to inhibit TNF-α production was analyzed in THP-1 cells, a human acute monocytic leukemia cell line that is widely used to assess monocyte functions. In order to induce maturation, THP-1 cells were plated at 1×10^6 cells/ml and pretreated with 5 nM PMA for two days. Differentiated THP-1 cells were pretreated with various concentrations of TTL3 or its analogs for 1 hour, followed by a 4 hour incubation with 1 μg of LPS (Sigma, St. Louse, Mo.). The p38 inhibitor (SB 203580; Sigma, St. Louis, Mo.) was used as a positive control. Supernatants were collected and stored at −80° C. until assayed for TNF-α activity. A resazurin assay was performed for each analog to evaluate the effects on cell metabolism and viability.
A preparation of the dye resazurin, commercially-available as alamarBlue™ (Biosource International Inc., 820 Flynn Road, Camarillo, Calif.), was used for the cytotoxicity assays described herein. The assays and experiments described herein were conducted in substantially the same manner as described in the scientific literature, for example, in Magnani, E. and Bettini, E., “Resazurin detection of energy metabolism changes in serum-starved PC12 cells and of neuroprotective agent effect,” Brain Res Protoc., 2000 July; 5(3):266-72 and in Nociari M. M., Shalev A., Benias P., and Russo C. J, “A novel one-step, highly sensitive fluorometric assay to evaluate cell-mediated cytotoxicity,” Immunol. Methods 213, 157-167 (1998), see also U.S. Pat. No. 5,501,959, entitled “Antibiotic and Cytotoxic Drug Susceptibility Assays using Resazurin and Poising Agents,” the entire specification of which is incorporated herein by reference.

TPA-induced ear edema = assay: TPA-induced mouse ear edema model; type: in vivo; conditions: 500 ng per ear topically with TPA, 4 h
Description: 2.5 μg of TPA dissolved in 20 μl of DMSO, was applied to both surfaces of the right ear of each mouse. The left ear (control) received the vehicle (DMSO). Tested compounds were administered topically (500 ng per ear in 20 μl of DMSO) simultaneously with TPA application. The reference drug, indomethacin, was administered at the same doses. After 4 h, the animals were killed by cervical dislocation and a 6 mm diameter disc from each ear was removed with a metal punch and weighed. Ear edema was calculated by subtracting the weight of the left ear (vehicle) from the right ear (treatment). Ear sections were homogenized in 750 μl of saline. After centrifugation at 10000×g for 15 min at 4° C., myeloperoxidase (MPO) activity was measured in supernatants.

IκBα phosphorylation = assay: phosphorylation level of IκBα induced by LPS in RPMI 8226 cells; type: cell-based; conditions: formula (IIB-A1) 13 μM, TTL3 10 μM, 50 ng/ml LPS
Description: One ml/well of 2×10^6/ml RPMI 8226 cells (#CCL-155C, American Type Culture Collection) were seeded in 6-well plate in LGM-3 medium and cultured for overnight at 37° C., 5% CO2 and 95% humidified air. TTL3 and formula (IIB-A1) were added to RPMI 8226 cells at the final concentration of 10 μM and 13 μM for 1 hr, respectively. DMSO was used as a control. Cells were then stimulated with 50 ng/ml LPS diluted in LGM-3 medium from 1 mg/ml stock solution for 30 min, 1 hr, 2 hr and 4 hr. At the end of each time point, cells were harvested by centrifugation and cell pellets were washed once in ice-cold 1× DPBS. To prepare samples for SDS-PAGE, cells were lysed in RIPA buffer (50 mM Tris-HCl, pH7.4, 0.9% NaCl, 1% Triton X-100, 0.25% Na-deoxycholate, 1 mM EDTA, 2 mM Na3VO4 and 1× protease inhibitors cocktail) for 15 min on ice. Cell lysates were cleared by centrifugation at 14,000 rpm, 4° C. for 10 min. Protein concentrations of cell lysates were determined by BCA protein assay kit prior to SDS-PAGE. Equal amount of proteins from various cell lysates were resolved on 10% NuPage MES precast gels and transferred to nitrocellulose membranes according to the manufacturer's instructions. After transfer membranes were first blocked in BLOTTO (5% Non-fat dry milk in 1× DPBS buffer containing 0.1% Tween-20) at room temperature for 2 hr and then incubated with appropriate primary antibodies: anti-phospho-IκBα (1:1000) or anti-Tubulin (1:2000) for 2 hr. Antibody against tubulin was used as a control to confirm the equal loading of each sample. After the primary antibody incubation, membranes were washed briefly 2-3 times for 10 min each with BLOTTO and again incubated with sheep anti-mouse HRP conjugated secondary antibody for 1 hr. Following the secondary antibody incubation, membranes were washed extensively 4 times for 15 min each with PBST (1× DPBS plus 0.1% Tween-20). HRP activity was visualized by the enhanced chemiluminescence (ECL) detection system.

SMILES	Effect on Cell Viability (THP-1 cells; 100 ng/ml)	Effect on Cell Viability (THP-1 cells; 1 ug/ml)	Effect on Cell Viability (THP-1 cells; 10 ug/ml)	ear edema (TPA-induced ear edema)	myeloperoxidase activity (TPA-induced ear edema)	ear edema (TPA-induced ear edema; listed as formula (IIB-A1))	level of IκBα phosphorylation induced by LPS in RPMI 8226 cells (IκBα phosphorylation)	level of IκBα phosphorylation induced by LPS in RPMI 8226 cells (IκBα phosphorylation; listed as formula (IIB-A1))
C=C[C@@]1(C)CCC=C2[C@H]1CC[C@@H]1[C@](C)(C(=O)N3CCOCC3)CCC[C@@]21C [LT-1-85]	100	100	80*	–	–	–	–	–
C=C[C@@]1(C)CCC=C2[C@H]1CC[C@@H]1[C@](C)(C(=O)NC3CCCCC3)CCC[C@@]21C [Formula (IIB-A1), N-Cyclohexylamide Derivative of TTL]	–	–	–	inhibit TPA-induced ear edema	significantly attenuated	significantly reduced	decrease	greatly reduced
C=C[C@@]1(C)CCC=C2[C@H]1CC[C@@H]1[C@](C)(C(=O)OC)CCC[C@@]21C [TTL3]	100	100	100	significantly reduced; also recorded: inhibit TPA-induced ear edema	significantly attenuated	–	minimal	–
